# The source made the active and inactive calls. The calls are words filed in the database; no cut-off is given here.
# Experiments:
# [1] = biological target: T1, Protein cereblon/Tyrosine-protein kinase BTK (Homo sapiens, UniProt Q06187+Q96SW2); experiment: PROTAC activity at CRBN/BTK in human JeKo-1 cells assessed as induction of BTK degradation incubated for 24 hrs by Western blotting analysis; format: cell-based
# Target sequence in this assay (Q06187 whole entry): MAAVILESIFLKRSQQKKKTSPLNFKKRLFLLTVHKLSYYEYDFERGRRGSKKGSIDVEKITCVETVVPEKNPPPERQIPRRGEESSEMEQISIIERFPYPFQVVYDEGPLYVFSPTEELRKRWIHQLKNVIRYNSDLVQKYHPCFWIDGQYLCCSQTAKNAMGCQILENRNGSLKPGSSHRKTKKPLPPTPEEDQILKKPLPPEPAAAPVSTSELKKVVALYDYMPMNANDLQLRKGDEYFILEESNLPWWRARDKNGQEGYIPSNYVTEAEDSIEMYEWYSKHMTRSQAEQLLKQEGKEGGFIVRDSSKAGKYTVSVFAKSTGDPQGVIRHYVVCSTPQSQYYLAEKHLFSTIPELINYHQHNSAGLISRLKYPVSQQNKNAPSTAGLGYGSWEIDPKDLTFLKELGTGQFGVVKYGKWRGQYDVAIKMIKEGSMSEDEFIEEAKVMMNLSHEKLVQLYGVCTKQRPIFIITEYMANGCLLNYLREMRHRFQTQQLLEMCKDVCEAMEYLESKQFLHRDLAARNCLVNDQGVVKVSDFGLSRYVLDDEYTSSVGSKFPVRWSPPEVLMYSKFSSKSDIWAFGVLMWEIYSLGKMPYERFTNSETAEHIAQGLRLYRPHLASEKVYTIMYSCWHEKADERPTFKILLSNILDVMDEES
# Target sequence in this assay (Q96SW2 whole entry): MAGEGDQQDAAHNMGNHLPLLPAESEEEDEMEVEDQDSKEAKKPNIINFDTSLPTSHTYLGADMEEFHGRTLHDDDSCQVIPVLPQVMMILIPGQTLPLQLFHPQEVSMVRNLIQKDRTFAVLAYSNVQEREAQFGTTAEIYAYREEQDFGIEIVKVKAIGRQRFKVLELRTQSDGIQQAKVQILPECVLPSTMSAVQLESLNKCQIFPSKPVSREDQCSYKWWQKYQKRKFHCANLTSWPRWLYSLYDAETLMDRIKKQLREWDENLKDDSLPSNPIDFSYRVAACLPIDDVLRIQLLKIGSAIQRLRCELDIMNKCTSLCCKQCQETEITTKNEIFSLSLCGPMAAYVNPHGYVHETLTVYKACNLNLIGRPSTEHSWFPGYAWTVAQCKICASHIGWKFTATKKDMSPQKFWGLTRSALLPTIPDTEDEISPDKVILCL
# [2] = biological target: T1, Protein cereblon/Tyrosine-protein kinase BTK; experiment: PROTAC activity at CRBN/BTK in human JeKo-1 cells assessed as induction of BTK degradation at 100 nM incubated for 24 hrs by Western blotting analysis relative to control; format: cell-based
# Target sequence in this assay (Q06187 2-659 limits assumed): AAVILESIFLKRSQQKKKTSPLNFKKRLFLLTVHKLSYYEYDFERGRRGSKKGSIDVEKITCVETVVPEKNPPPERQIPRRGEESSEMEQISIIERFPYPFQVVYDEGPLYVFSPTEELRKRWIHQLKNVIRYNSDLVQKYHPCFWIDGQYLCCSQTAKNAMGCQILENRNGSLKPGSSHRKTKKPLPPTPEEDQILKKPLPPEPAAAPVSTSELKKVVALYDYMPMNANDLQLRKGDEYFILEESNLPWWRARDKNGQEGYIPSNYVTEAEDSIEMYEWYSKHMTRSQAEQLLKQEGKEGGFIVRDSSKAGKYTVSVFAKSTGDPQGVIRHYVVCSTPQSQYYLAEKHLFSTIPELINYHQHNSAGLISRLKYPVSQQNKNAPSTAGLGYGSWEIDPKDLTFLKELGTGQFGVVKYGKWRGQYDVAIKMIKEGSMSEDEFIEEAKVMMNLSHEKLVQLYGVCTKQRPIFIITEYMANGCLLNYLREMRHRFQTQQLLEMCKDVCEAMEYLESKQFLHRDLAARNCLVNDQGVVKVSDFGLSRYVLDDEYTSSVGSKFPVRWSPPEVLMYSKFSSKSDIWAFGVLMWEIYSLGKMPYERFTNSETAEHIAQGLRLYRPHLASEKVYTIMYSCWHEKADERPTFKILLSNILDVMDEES
# Target sequence in this assay (Q96SW2 whole entry partner): as the sequence (Q96SW2 whole entry) above
# [3] = biological target: T1, Protein cereblon/Tyrosine-protein kinase BTK; experiment: PROTAC activity at CRBN/BTK in human JeKo-1 cells assessed as induction of BTK degradation at 1000 nM incubated for 24 hrs by Western blotting analysis relative to control; format: cell-based
# Target sequence in this assay (Q06187 2-659 limits assumed): as the sequence (Q06187 2-659 limits assumed) above
# Target sequence in this assay (Q96SW2 whole entry partner): as the sequence (Q96SW2 whole entry) above
# [4] = Metabolic stability in mouse liver microsomes assessed as half life at […] measured upto 60 mins in presence of NADPH by HPLC-MS/MS analysis; format: ADME, Microsome
# [5] = biological target: T1, Protein cereblon/Tyrosine-protein kinase BTK; experiment: PROTAC activity at CRBN/BTK in human JeKo-1 cells assessed as induction of BTK degradation by measuring maximal efficacy at 1.6 to 5000 nM incubated for 24 hrs by Western blotting analysis relative to control; format: cell-based; conditions: dose 1.6-5000 nM
# Target sequence in this assay (Q06187 2-659 limits assumed): as the sequence (Q06187 2-659 limits assumed) above
# Target sequence in this assay (Q96SW2 whole entry partner): as the sequence (Q96SW2 whole entry) above
# [6] = test system: OCI-Ly10; experiment: Antiproliferative activity against human OCILY10 cells assessed as inhibition of cell growth measured after 3 days by CCK-8 assay; format: functional, cell-based; conditions: OCI-Ly10, 72 h
# [7] = test system: TMD8; experiment: Antiproliferative activity against human TMD8 cells assessed as inhibition of cell growth measured after 3 days by CCK-8 assay; format: functional, cell-based; conditions: TMD8, 72 h
# [8] = test system: JeKo-1; experiment: Antiproliferative activity against human JeKo-1 cells assessed as inhibition of cell growth measured after 3 days by CCK-8 assay; format: functional, cell-based; conditions: JeKo-1, 72 h
# [9] = test system: BaF3; experiment: Antiproliferative activity against mouse BaF3 cells expressing BTK C481S mutant assessed as inhibition of cell growth measured after 3 days by CCK-8 assay; format: functional, cell-based; conditions: BaF3, 72 h
# [10] = biological target: T1, Protein cereblon/Tyrosine-protein kinase BTK; experiment: PROTAC activity at CRBN/BTK in human JeKo-1 cells assessed as induction of BTK degradation by measuring maximal efficacy at 1.6 to 1000 nM incubated for 24 hrs by Western blotting analysis relative to control; format: cell-based; conditions: dose 1.6-1000 nM
# Target sequence in this assay (Q06187 2-659 limits assumed): as the sequence (Q06187 2-659 limits assumed) above
# Target sequence in this assay (Q96SW2 whole entry partner): as the sequence (Q96SW2 whole entry) above
# [11] = biological target: T1, Protein cereblon/Tyrosine-protein kinase BTK; experiment: PROTAC activity at CRBN/BTK in human JeKo-1 cells assessed as induction of BTK degradation pre-treated with N-((1S,4S)-4-((5-(2-chloro-4-phenoxybenzoyl)-7H-pyrrolo[2,3-d]pyrimidin-4-yl)amino)cyclohexyl)-2-(1-(2-(1-(6-fluoro-2-(1-methyl-2,6-dioxopiperidin-3-yl)-1-oxoisoindolin-5-yl)piperidin-4-yl)ethyl)piperidin-4-yl)acetamide for 2 hrs followed by compound treatment for 12 hrs by Western blotting analysis; format: cell-based
# Target sequence in this assay (Q06187 2-659 limits assumed): as the sequence (Q06187 2-659 limits assumed) above
# Target sequence in this assay (Q96SW2 whole entry partner): as the sequence (Q96SW2 whole entry) above
# [12] = biological target: T1, Protein cereblon/Tyrosine-protein kinase BTK; experiment: PROTAC activity at CRBN/BTK in human JeKo-1 cells assessed as induction of BTK degradation pre-treated with MG-132 for 2 hrs followed by compound treatment for 12 hrs by Western blotting analysis; format: cell-based
# Target sequence in this assay (Q06187 2-659 limits assumed): as the sequence (Q06187 2-659 limits assumed) above
# Target sequence in this assay (Q96SW2 whole entry partner): as the sequence (Q96SW2 whole entry) above
# [13] = biological target: T1, Protein cereblon/Tyrosine-protein kinase BTK; experiment: PROTAC activity at CRBN/BTK in human JeKo-1 cells assessed as effect on […] levels at 1.6 to 1000 nM incubated for 24 hrs by Western blotting analysis; format: cell-based; conditions: dose 1.6-1000 nM
# [14] = biological target: T1, Protein cereblon/Tyrosine-protein kinase BTK; experiment: PROTAC activity at CRBN/BTK in human JeKo-1 cells assessed as effect on GSPT1 levels at 1.6 to 1000 nM incubated for 24 hrs by Western blotting analysis; format: cell-based; conditions: dose 1.6-1000 nM
# [15] = Drug concentration in BALB/c mouse plasma at 2 mg/kg, iv measured after 4 hrs by LC-MS/MS analysis; format: ADME, organism-based
SMILES,DC50 [1] [nM],Activity [2] [%],Activity [3] [%],also measured
O=C1CCC(N2C(=O)c3cc(F)c(N4CCC(CCN5CCC(CC(=O)N[C@H]6CC[C@@H](Nc7ncnc8[nH]cc(C(=O)c9ccc(Oc%10ccccc%10)cc9Cl)c78)CC6)CC5)CC4)cc3C2=O)C(=O)N1 (some centres undefined),9.3,87,88.5,half-life [4]: 55.4 min; Emax [5]: 93.6%; IC50 [6]: 28.2 nM; IC50 [7]: 47 nM; IC50 [8]: 116 nM
O=C1CCC(N2C(=O)c3ccc(N4CCC(CN5CC(CN[C@H]6CC[C@@H](Nc7ncnc8[nH]cc(C(=O)c9ccc(Oc%10ccccc%10)cc9Cl)c78)CC6)C5)CC4)cc3C2=O)C(=O)N1 (some centres undefined),,29.5,38.5,
C=CC(=O)N1CCC[C@@H](n2nc(-c3ccc(Oc4ccccc4)cc3)c3c(N)ncnc32)C1 [IBRUTINIB],,,,IC50 [6]: 4.5 nM; IC50 [7]: 4.7 nM; IC50 [8]: 79.8 nM; IC50 [9]: 1550 nM
O=C1CCC(N2C(=O)c3cccc(NCCOCCOCCOCCOCCOCCNC(=O)N[C@H]4CC[C@@H](Nc5ncnc6[nH]cc(C(=O)c7ccc(Oc8ccccc8)cc7Cl)c56)CC4)c3C2=O)C(=O)N1 (some centres undefined),20,86.5,88.6,Emax [10]: 93.8%; half-life [4]: 1.3 min; IC50 [9]: 1760 nM
O=C1CCC(N2C(=O)c3ccc(N4CCC(CC(=O)N5CCC(CN[C@H]6CC[C@@H](Nc7ncnc8[nH]cc(C(=O)c9ccc(Oc%10ccccc%10)cc9Cl)c78)CC6)CC5)CC4)cc3C2=O)C(=O)N1 (some centres undefined),,45.5,57,
O=C1CCC(N2Cc3cc(N4CCC(CCN5CCC(CC(=O)N[C@H]6CC[C@@H](Nc7ncnc8[nH]cc(C(=O)c9ccc(Oc%10ccccc%10)cc9Cl)c78)CC6)CC5)CC4)c(F)cc3C2=O)C(=O)N1 (some centres undefined),7,91,89,Emax [10]: 96.5%; half-life [4]: > 145 min; Activity [11]: inactive; Activity [12]: inactive; Activity [13]: inactive; Activity [14]: inactive; IC50 [6]: 2.3 nM; IC50 [7]: 4.5 nM; IC50 [8]: 38.1 nM; IC50 [9]: 86 nM; concentration at 4 h [15]: > 10 nM
O=C1CCC(N2C(=O)c3ccc(N4CCC(N5CCC(CN[C@H]6CC[C@@H](Nc7ncnc8[nH]cc(C(=O)c9ccc(Oc%10ccccc%10)cc9Cl)c78)CC6)CC5)CC4)cc3C2=O)C(=O)N1 (some centres undefined),,39,42.5,
O=C1CCC(N2C(=O)c3ccc(N4CCC(CN5CCC(CC(=O)N[C@H]6CC[C@@H](Nc7ncnc8[nH]cc(C(=O)c9ccc(Oc%10ccccc%10)cc9Cl)c78)CC6)CC5)CC4)cc3C2=O)C(=O)N1 (some centres undefined),24,79.5,73.5,
O=C1CCC(N2C(=O)c3ccc(N4CC(N5CCC(CN[C@H]6CC[C@@H](Nc7ncnc8[nH]cc(C(=O)c9ccc(Oc%10ccccc%10)cc9Cl)c78)CC6)CC5)C4)cc3C2=O)C(=O)N1 (some centres undefined),,30,21,
O=C1CCC(N2C(=O)c3ccc(N4CCC(CCN5CCC(CN[C@H]6CC[C@@H](Nc7ncnc8[nH]cc(C(=O)c9ccc(Oc%10ccccc%10)cc9Cl)c78)CC6)CC5)CC4)cc3C2=O)C(=O)N1 (some centres undefined),100,76,69.5,
O=C1CCC(N2C(=O)c3ccc(N4CCC(CN5CCC(CCN[C@H]6CC[C@@H](Nc7ncnc8[nH]cc(C(=O)c9ccc(Oc%10ccccc%10)cc9Cl)c78)CC6)CC5)CC4)cc3C2=O)C(=O)N1 (some centres undefined),,57,77,
O=C(c1ccc(Oc2ccccc2)cc1Cl)c1c[nH]c2ncnc(N[C@@H]3CC[C@@H](CO)OC3)c12 [NEMTABRUTINIB],,,,IC50 [8]: 66.1 nM; IC50 [9]: 548 nM
O=C1CCC(N2C(=O)c3ccc(N4CCC(CN5CCC(CN[C@H]6CC[C@@H](Nc7ncnc8[nH]cc(C(=O)c9ccc(Oc%10ccccc%10)cc9Cl)c78)CC6)CC5)CC4)cc3C2=O)C(=O)N1 (some centres undefined),,48,63.5,
O=C1CCC(N2C(=O)c3ccc(N4CCC(N5CCC(N[C@H]6CC[C@@H](Nc7ncnc8[nH]cc(C(=O)c9ccc(Oc%10ccccc%10)cc9Cl)c78)CC6)CC5)CC4)cc3C2=O)C(=O)N1 (some centres undefined),,15,18.5,
O=C1CCC(N2C(=O)c3ccc(N4CCC(CN5CC(N[C@H]6CC[C@@H](Nc7ncnc8[nH]cc(C(=O)c9ccc(Oc%10ccccc%10)cc9Cl)c78)CC6)C5)CC4)cc3C2=O)C(=O)N1 (some centres undefined),,32,24,
O=C1CCC(N2Cc3ccc(N4CCC(CCN5CCC(CC(=O)N[C@H]6CC[C@@H](Nc7ncnc8[nH]cc(C(=O)c9ccc(Oc%10ccccc%10)cc9Cl)c78)CC6)CC5)CC4)cc3C2=O)C(=O)N1 (some centres undefined),7.4,83,87,Emax [10]: 90.6%; half-life [4]: > 145 min; IC50 [6]: 5.9 nM; IC50 [7]: 9.3 nM; IC50 [8]: 34.4 nM
O=C1CCC(N2C(=O)c3ccc(N4CCC(N[C@H]5CC[C@@H](Nc6ncnc7[nH]cc(C(=O)c8ccc(Oc9ccccc9)cc8Cl)c67)CC5)CC4)cc3C2=O)C(=O)N1 (some centres undefined),,3,5,
O=C1CCC(N2C(=O)c3ccc(N4CCC(CN5CCC(N[C@H]6CC[C@@H](Nc7ncnc8[nH]cc(C(=O)c9ccc(Oc%10ccccc%10)cc9Cl)c78)CC6)CC5)CC4)cc3C2=O)C(=O)N1 (some centres undefined),,51.5,62,
O=C1CCC(N2C(=O)c3ccc(N4CCC(CCN5CCC(CC(=O)N[C@H]6CC[C@@H](Nc7ncnc8[nH]cc(C(=O)c9ccc(Oc%10ccccc%10)cc9Cl)c78)CC6)CC5)CC4)cc3C2=O)C(=O)N1 (some centres undefined),8.8,85,82.5,half-life [4]: 86 min; Emax [5]: 94.1%; IC50 [6]: 15.4 nM; IC50 [7]: 82.1 nM; IC50 [8]: 59.5 nM
O=C1CCC(N2C(=O)c3ccc(N4CCC(CN5CCCC(N[C@H]6CC[C@@H](Nc7ncnc8[nH]cc(C(=O)c9ccc(Oc%10ccccc%10)cc9Cl)c78)CC6)C5)CC4)cc3C2=O)C(=O)N1 (some centres undefined),,31.5,74,
O=C1CCC(N2C(=O)c3ccc(N4CCC(CN5CCC(C(=O)N[C@H]6CC[C@@H](Nc7ncnc8[nH]cc(C(=O)c9ccc(Oc%10ccccc%10)cc9Cl)c78)CC6)CC5)CC4)cc3C2=O)C(=O)N1 (some centres undefined),,61,50,
O=C1CCC(N2Cc3cc(N4CCC(CCN5CCC(CC(=O)N[C@H]6CC[C@@H](Nc7ncnc8[nH]cc(C(=O)c9ccc(Oc%10ccccc%10)cc9Cl)c78)CC6)CC5)CC4)ccc3C2=O)C(=O)N1 (some centres undefined),10.1,80.4,86,Emax [10]: 90.1%; half-life [4]: 52 min; IC50 [6]: 15.7 nM; IC50 [7]: 15.5 nM
O=C1CCC(N2C(=O)c3ccc(N4CCC(F)(CN5CCC(CC(=O)N[C@H]6CC[C@@H](Nc7ncnc8[nH]cc(C(=O)c9ccc(Oc%10ccccc%10)cc9Cl)c78)CC6)CC5)CC4)cc3C2=O)C(=O)N1 (some centres undefined),,28.5,26,
